The record followed here is ChEMBL document CHEMBL3526130, “An evaluation of using rat-derived single-dose neuropharmacokinetic parameters to project accurately large animal unbound brain drug concentrations” (Drug Metab Dispos, 2012).

Series [1] can be described thus: AUC(0 to 7 hrs) in Sprague-Dawley rat brain at 3 mg/kg, sc by LC-MS/MS analysis. Type of series: ADME, organism-based. Further details: time < 7 hr, dose 3 mg/kg, route subcutaneous.
A short description of series [2]: AUC(0 to infinity) in Sprague-Dawley rat plasma at 3 mg/kg, sc by LC-MS/MS analysis. Format: ADME, organism-based. Set-up: time infinity, dose 3 mg/kg, route subcutaneous.
Series [3] can be described thus: AUC(0 to 7 hrs) in Sprague-Dawley rat plasma at 3 mg/kg, sc by LC-MS/MS analysis. Format: ADME, organism-based. Set-up: time < 7 hr, dose 3 mg/kg, route subcutaneous.
A short description of series [4]: Ratio of unbound brain concentration to drug level in cerebrospinal fluid in Sprague-Dawley rat at 3 mg/kg, sc by LC-MS/MS analysis. Format: ADME, organism-based. Set-up: dose 3 mg/kg, route subcutaneous. The conditions noted are these: in vivo.
Series [5] is described as follows: Ratio of drug level in brain to plasma in Sprague-Dawley rat at 3 mg/kg, sc by LC-MS/MS analysis. Format: ADME, organism-based. Set-up: dose 3 mg/kg, route subcutaneous. The note with it: read-out: BPR.
A short description of series [6]: AUC(0 to 7 hrs) in Sprague-Dawley rat cerebrospinal fluid at 3 mg/kg, sc by LC-MS/MS analysis. Type of series: ADME, organism-based. Further details: time < 7 hr, dose 3 mg/kg, route subcutaneous.
Series [7] can be described thus: Ratio of unbound drug level in brain to plasma in Sprague-Dawley rat at 3 mg/kg, sc by LC-MS/MS analysis. Format: ADME, organism-based. Further details: dose 3 mg/kg, route subcutaneous.
For series [8], the system named is Nucleic Acid. Description: Ratio of drug level in cerebrospinal fluid to unbound plasma concentration in Sprague-Dawley rat at 3 mg/kg, sc by LC-MS/MS analysis. Type of series: ADME, organism-based. The note with it: in vivo. Set-up: dose 3 mg/kg, route subcutaneous.
Series [9] is described as follows: AUC(0 to infinity) in Sprague-Dawley rat brain at 3 mg/kg, sc by LC-MS/MS analysis. Format: ADME, organism-based. Further details: dose 3 mg/kg, route subcutaneous, time infinity.
A short description of series [10]: AUC(0 to infinity) in Sprague-Dawley rat cerebrospinal fluid at 3 mg/kg, sc by LC-MS/MS analysis. Further details: dose 3 mg/kg, route subcutaneous, time infinity. Format: ADME, organism-based.
The nature of series [11]: Ratio of drug level in brain to plasma in Sprague-Dawley rat at 1 mg/kg, sc by LC-MS/MS analysis. Type of series: ADME, organism-based. Set-up: dose 1 mg/kg, route subcutaneous. The note with it: read-out: BPR.
Series [12] in a line: AUC(0 to infinity) in Sprague-Dawley rat brain at 1 mg/kg, sc by LC-MS/MS analysis. Format: ADME, organism-based. Further details: time infinity, dose 1 mg/kg, route subcutaneous.
The nature of series [13]: Ratio of drug level in brain to plasma in cynomolgus monkey at 0.1 mg/kg, sc by LC-MS/MS analysis. Format: ADME, organism-based, Macaca fascicularis. Further details: dose 0.1 mg/kg, route subcutaneous. The note with it: brain and plasma, read-out: BPR.
The nature of series [14]: Unbound fraction in cynomolgus monkey plasma at 0.1 mg/kg, sc by LC-MS/MS analysis. Format: ADME, organism-based, Macaca fascicularis. Further details: dose 0.1 mg/kg, route subcutaneous.
Series [15] in a line: AUC(0 to infinity) in Sprague-Dawley rat plasma at 1 mg/kg, sc by LC-MS/MS analysis. Format: ADME, organism-based. Set-up: time infinity, dose 1 mg/kg, route subcutaneous.
A short description of series [16]: AUC(0 to 2 hrs) in Sprague-Dawley rat cerebrospinal fluid at 1 mg/kg, sc by LC-MS/MS analysis. Set-up: time < 2 hr, dose 1 mg/kg, route subcutaneous. Format: ADME, organism-based.
Series [17] is described as follows: Ratio of drug level in brain to plasma in Beagle dog at 0.1 mg/kg, sc by LC-MS/MS analysis. Type of series: ADME, organism-based, Canis lupus familiaris. Set-up: dose 0.1 mg/kg, route subcutaneous. The conditions noted are these: brain and plasma, read-out: BPR.
Series [18] in a line: Ratio of unbound brain concentration to drug level in cerebrospinal fluid in cynomolgus monkey at 0.1 mg/kg, sc by LC-MS/MS analysis. Type of series: ADME, organism-based, Macaca fascicularis. Set-up: dose 0.1 mg/kg, route subcutaneous. The conditions noted are these: in vivo.
Series [19] is described as follows: AUC(0 to 2 hrs) in Sprague-Dawley rat brain at 1 mg/kg, sc by LC-MS/MS analysis. Further details: time < 2 hr, dose 1 mg/kg, route subcutaneous. Type of series: ADME, organism-based.
Series [20] can be described thus: Ratio of unbound drug level in brain to plasma in cynomolgus monkey at 0.1 mg/kg, sc by LC-MS/MS analysis. Type of series: ADME, organism-based, Macaca fascicularis. Set-up: dose 0.1 mg/kg, route subcutaneous. The note with it: brain and plasma.
Series [21] can be described thus: AUC(0 to 1 hr) in cynomolgus monkey brain at 0.1 mg/kg, sc by LC-MS/MS analysis. Format: ADME, organism-based, Macaca fascicularis. Set-up: time < 1 hr, dose 0.1 mg/kg, route subcutaneous.
The nature of series [22]: AUC(0 to 1 hr) in cynomolgus monkey cerebrospinal fluid at 0.1 mg/kg, sc by LC-MS/MS analysis. Type of series: ADME, organism-based, Macaca fascicularis. Set-up: time < 1 hr, dose 0.1 mg/kg, route subcutaneous.
A short description of series [23]: AUC(0 to 2 hrs) in Beagle dog plasma at 0.1 mg/kg, sc by LC-MS/MS analysis. Type of series: ADME, organism-based, Canis lupus familiaris. Further details: time < 2 hr, dose 0.1 mg/kg, route subcutaneous.
The nature of series [24]: Ratio of unbound brain concentration to drug level in cerebrospinal fluid in Beagle dog at 0.1 mg/kg, sc by LC-MS/MS analysis. Format: ADME, organism-based, Canis lupus familiaris. Further details: dose 0.1 mg/kg, route subcutaneous. The conditions noted are these: in vivo.
Series [25] is described as follows: AUC(0 to 2 hrs) in Sprague-Dawley rat plasma at 1 mg/kg, sc by LC-MS/MS analysis. Type of series: ADME, organism-based. Set-up: time < 2 hr, dose 1 mg/kg, route subcutaneous.
The nature of series [26]: AUC(0 to 2 hrs) in Beagle dog cerebrospinal fluid at 0.1 mg/kg, sc by LC-MS/MS analysis. Format: ADME, organism-based, Canis lupus familiaris. Further details: time < 2 hr, dose 0.1 mg/kg, route subcutaneous.
A short description of series [27]: Ratio of unbound brain concentration to drug level in cerebrospinal fluid in Sprague-Dawley rat at 1 mg/kg, sc by LC-MS/MS analysis. Type of series: ADME, organism-based. Set-up: dose 1 mg/kg, route subcutaneous. The conditions noted are these: in vivo.
Series [28] can be described thus: Unbound fraction in Beagle dog plasma at 0.1 mg/kg, sc by LC-MS/MS analysis. Type of series: ADME, organism-based, Canis lupus familiaris. Further details: dose 0.1 mg/kg, route subcutaneous.
Series [29] in a line: Ratio of unbound drug level in brain to plasma in Beagle dog at 0.1 mg/kg, sc by LC-MS/MS analysis. The note with it: brain and plasma. Type of series: ADME, organism-based, Canis lupus familiaris. Set-up: dose 0.1 mg/kg, route subcutaneous.
Series [30] in a line: Unbound fraction in Beagle dog brain at 0.1 mg/kg, sc by LC-MS/MS analysis.
For series [31], the system named is Nucleic Acid. Nature of the series: Ratio of drug level in cerebrospinal fluid to unbound plasma concentration in Sprague-Dawley rat at 1 mg/kg, sc by LC-MS/MS analysis. Type of series: ADME, organism-based. Set-up: dose 1 mg/kg, route subcutaneous. The conditions noted are these: in vivo.
The nature of series [32]: Ratio of unbound drug level in brain to plasma in Sprague-Dawley rat at 1 mg/kg, sc by LC-MS/MS analysis. Further details: dose 1 mg/kg, route subcutaneous. Format: ADME, organism-based.
The nature of series [33]: AUC(0 to 2 hrs) in Beagle dog brain at 0.1 mg/kg, sc by LC-MS/MS analysis. Format: ADME, organism-based, Canis lupus familiaris. Further details: time < 2 hr, dose 0.1 mg/kg, route subcutaneous.
Series [34] in a line: Unbound fraction in cynomolgus monkey brain at 0.1 mg/kg, sc by LC-MS/MS analysis. Type of series: ADME, organism-based, Macaca fascicularis. Further details: dose 0.1 mg/kg, route subcutaneous.
The nature of series [35]: AUC(0 to infinity) in Sprague-Dawley rat cerebrospinal fluid at 1 mg/kg, sc by LC-MS/MS analysis. Format: ADME, organism-based. Further details: time infinity, dose 1 mg/kg, route subcutaneous.
Series [36] relates to Nucleic Acid. Nature of the series: Ratio of drug level in cerebrospinal fluid to unbound plasma concentration in cynomolgus monkey at 0.1 mg/kg, sc by LC-MS/MS analysis. Type of series: ADME, organism-based, Macaca fascicularis. Further details: dose 0.1 mg/kg, route subcutaneous. The conditions noted are these: in vivo.
Series [37] is described as follows: AUC(0 to 1 hr) in cynomolgus monkey plasma at 0.1 mg/kg, sc by LC-MS/MS analysis. Format: ADME, organism-based, Macaca fascicularis. Set-up: time < 1 hr, dose 0.1 mg/kg, route subcutaneous.
A short description of series [38]: AUC(0 to infinity) in Sprague-Dawley rat brain at 0.2 mg/kg, sc by LC-MS/MS analysis. Format: ADME, organism-based. Further details: time infinity, dose 0.2 mg/kg, route subcutaneous.
The nature of series [39]: AUC(0 to 7 hrs) in Sprague-Dawley rat plasma at 0.2 mg/kg, sc by LC-MS/MS analysis. Type of series: ADME, organism-based. Further details: time < 7 hr, dose 0.2 mg/kg, route subcutaneous.
Series [40] is described as follows: AUC(0 to 7 hrs) in Sprague-Dawley rat brain at 0.2 mg/kg, sc by LC-MS/MS analysis. Type of series: ADME, organism-based. Set-up: time < 7 hr, dose 0.2 mg/kg, route subcutaneous.
Series [41] in a line: AUC(0 to infinity) in Sprague-Dawley rat plasma at 0.2 mg/kg, sc by LC-MS/MS analysis. Type of series: ADME, organism-based. Further details: dose 0.2 mg/kg, route subcutaneous, time infinity.
The nature of series [42]: AUC(0 to 7 hrs) in Sprague-Dawley rat cerebrospinal fluid at 0.2 mg/kg, sc by LC-MS/MS analysis. Format: ADME, organism-based. Further details: time < 7 hr, dose 0.2 mg/kg, route subcutaneous.
The nature of series [43]: AUC(0 to infinity) in Sprague-Dawley rat cerebrospinal fluid at 0.2 mg/kg, sc by LC-MS/MS analysis. Format: ADME, organism-based. Set-up: time infinity, dose 0.2 mg/kg, route subcutaneous.

For orientation: AUC(0-t) means the area under the concentration-time curve up to a stated or last time point. The AUC(0-inf) is the area under the concentration-time curve extrapolated to infinity. Take `CCN(CC)CCNC(=O)c1cc(Cl)c(N)cc1OC` [METOCLOPRAMIDE]: the exposure AUC(0-t) at 7 h in series [1] was found to be 629 ng·h/mL; in [3], 365 ng·h/mL; in [6], 418 ng·h/mL. For the same compound, the AUC(0-inf) in [2] was 367 ng·h/mL; in series [9], 635 ng·h/mL; in [10], 420 ng·h/mL. In addition, the Ratio in series [4] worked out at 0.5; in the series on Nucleic Acid [8], 1.8. For the same compound, in [5], the Kp was determined as 1.72. Besides, the Kp uu in [7] was found to be 0.89.
Usually fraction unbound stands for the share of the substance not bound to proteins or other matrix. For `Cc1nc2n(c(=O)c1CCN1CCC(c3noc4cc(F)ccc34)CC1)CCCC2` [RISPERIDONE], the results for the Kp in series [11], in series [13] and in series [17] were 0.26, 0.82 and 1.01, respectively. Moreover, the AUC(0-inf) in [12] was 130 ng·h/mL; in series [15], 441 ng·h/mL; in [35] it was 11.9 ng·h/mL. Further, the fraction unbound in series [14] worked out at 0.084; in series [28], 0.083; in [30] it was 0.0809; in series [34], 0.0919. The AUC(0-t) at 2 h in series [16] was 11.3 ng·h/mL; in series [19], 108 ng·h/mL; in [23], 71.2 ng·h/mL; in [25] it was 409 ng·h/mL; in series [26], 3.48 ng·h/mL; in series [33], 72 ng·h/mL. Moreover, the Ratio in series [18] amounted to 1.82; in series [24], 1.67; in series [27] it was 0.67; in the series with Nucleic Acid [31] it was 0.35; with Nucleic Acid [36], 0.49. Further, the figures for the Kp uu in series [20], in [29] and in [32] were 0.89, 0.99 and 0.23, respectively. Also, the AUC(0-t) at 1 h is 22.6 ng·h/mL in series [21], 1.14 ng·h/mL in series [22] and 27.6 ng·h/mL in series [37].
Regarding `CCCC(C)C1(CC)C(=O)NC(=S)NC1=O` (stereo not drawn) [THIOPENTAL], the AUC(0-inf) in series [38] is 215 ng·h/mL; in [41], 244 ng·h/mL; in [43] it was 16.6 ng·h/mL. For the same compound, the AUC(0-t) at 7 h in series [39] was 216 ng·h/mL; in series [40], 209 ng·h/mL; in [42], 16.4 ng·h/mL.
